Assay results as given in US9212204B2, “Treatment of rett syndrome using glycyl-L-2-methylprolyl-L-glutamic acid” (priority 2011, dated 2015).
Non-standard residues stand in square brackets, D forms with d. Residues, ends and D or L forms follow the SMILES beside them. αMeP = C[C@@]1(C(=O)O)CCCN1

Assays:
[1] = test system: ChAT-positive neurons in the striatum of 18-month old rats; test: ChAT immunohistochemistry in striatum of aging rats; type: in vivo, rat; conditions: single s.c. dose 0.012-12 mg/kg, 3 days after treatment
Description: In this experiment, we tested the effects of G-2-MePE on the number of ChAT-positive neurons in brains of 18-month old rats.
Eighteen-month old male rats received one of five treatments. A control group was treated with vehicle (saline alone (n=4) and four groups were treated with a single dose of G-2-MePE. Doses of 0.012 (n=4), 0.12 (n=5), 1.2 (ln=5) and 12 mg/kg (n=3), respectively, were given sub-cutaneously. Rats were sacrificed with an overdose of pentobarbital 3 days after drug treatment. Brains were perfused with normal saline and 4% paraformaldehyde and fixed in perfusion fixative overnight. Brains were stored in 25% sucrose in 0.1M PBS (pH7.4) until the tissue sank. Frozen coronal sections of striatum were cut with a microtome and stored in 0.1% sodium azide in 0.1M PBS at 4° C. Immunoreactivity for choline acetyltransferase (ChAT) was established by staining using a free floating section method. Briefly, antibodies were diluted in 1% goat serum. The sections were incubated in 0.2% triton in 0.1M PBS/Triton™ at 4° C. overnight before Immunohistochemical staining. The sections were pre-treated with 1% H2O2 in 50% methanol for 20 min. […]
The size of the striatal region used for the count was measured using an image analyser. […]
Data were analysed using a paired t-test and presented as mean+/−SEM.

[2] = test system: PCNA positive cells in the subventricular zone (SVZ); test: PCNA staining, neuroblast proliferation in the subventricular zone; type: in vivo, rat; conditions: for number of PCNA positive cells in the SVZ: 3 days after treatment
Description: To carry out these studies, tissues were fixed and embedded in paraffin and sections obtained using standard methods. Coronal sections (6 μm) containing the level of the hippocampus were cut and mounted on chrome-alum-coated slides for staining. The sections were deparaffinized in xylene, dehydrated in a series of ethanol and incubated in 0.1 M phosphate buffered saline (PBS).
Primary antibodies against glial fibrillary acidic protein (GFAP) and proliferating cell nuclear antigen (PCNA) were used to mark reactive glial cells and cells undergoing apoptosis and proliferation, respectively. For antigen unmasking (caspase-3 and PCNA staining), sections were heated in 10 mM sodium citrate buffer (pH 6.0) for 1 min at high power. All sections were pretreated with 1% […] in 50% methanol for 30 min to quench the endogenous peroxidase activity. Then either 1.5% normal horse serum or 2.5% normal sheep serum in PBS was applied for 1 h at room temperature to block nonspecific background staining. The sections were then incubated with following primary antibodies: monoclonal mouse anti-GFAP antibody (Sigma, St. Louis, Mo., U.S.A. diluted 1:500); mouse anti-PCNA antibody (DAKA, A/S, Denmark, diluted 1:100). After incubation with primary antibodies at 4° C. for 2 d (except for PCNA staining which was incubated overnight) the sections were incubated with biotinylated horse anti-mouse or goat anti-rabbit secondary antibody (1:200, Sigma) at 4° C. overnight. The ExtrAvidin™ (Sigma, 1:200), which had been prepared 1 h before use, was applied for 3 h at room temperature, and then reacted in 0.05% 3,3-diaminobenzidine (DAB) and PBS to produce a brown reaction product. Sections were dehydrated in a series of alcohols to xylene and coverslipped with mounting medium.
Immunohistochemical staining was performed on brain samples taken from both control and G-2-MePE treated groups of young (4 months old), middle-aged (9 months old) and aged rats (18 months old).
Control sections were processed in the same way except the primary antibody was omitted from the incubation solution. The number of PCNA positive cells was counted in the subventricular zone and the GFAP positive cells was scored in the cerebral cortex.
The subventricular zone (SVZ) and the dentate gyrus (DG) are two brain regions hosting adult neurogenesis. […]
Eighteen month old male rats were treated intraperitoneally with single does of G2-MePE (doses of either 0, 0.012, 0.12. 1.2, 12 mg/kg). […] The number of PCNA positive cells was counted in the SVZ and the number of cells was then averaged as cells/mm depending on the length of ventricle wall used for counting (FIG. 19A). […]

[3] = test system: slices of hippocampus from MeCP2 deficient mice; test: Hippocampal long-term potentiation in MeCP2 deficient mice; type: in vivo, mouse; conditions: 20 mg/kg/day i.p. from week 4 to week 9; vs saline
From the text: MeCP2 deficient mice have been previously reported to suffer from functional and ultrastructural synaptic dysfunction, significant impairment of hippocampus-dependent memory and hippocampal long-term potentiation (LTP) (Moretti et al. The Journal of Neuroscience. 2006. 26(1):319-327). To test the effects of the G-2-MePE treatment on synaptic function in the RTT model we compared hippocampal LTP in both vehicle and G-2-MePE treated animals at 9 weeks of age. To do so, we measured the slope of the fEPSP as a % of baseline potential in neurons in slices of hippocampus from MeCP2 deficient mice treated with either saline or G-2-MePE (FIG. 23).

[4] = test system: gastrointestinal cells; conditions: cited from earlier work

Question: Which “number of ChAT-immunopositive neurons” value [1] does the source give for `C[C@@]1(C(=O)N[C@@H](CCC(=O)O)C(=O)O)CCCN1C(=O)CN` [Example G-2-MePE, Glycyl-L-2-methylprolyl-L-glutamic acid] (H-Gly-[αMeP]-Glu-OH) here?
Answer: increased

Question: What about the “number of PCNA positive cells in the SVZ” value ([2]; 1.2 mg/kg i.p., 9 month old rats, p<0.005) of the same molecule?
Answer: significant increase

Question: And the “dose dependence of effect on neurogenesis” value ([2]; 0.012-12 mg/kg single i.p. dose, 18 month old rats)?
Answer: dose-dependent effect

Question: What about the “number of PCNA positive cells in the SVZ” value ([2]; 12 mg/kg single i.p. dose, 18 month old rats, vs vehicle p<0.05) of the same molecule?
Answer: significant increase

Question: And the “PCNA and doublecortin staining” value ([2]; highest dose, vs vehicle treated rat, FIG. 19B)?
Answer: increase

Question: What about the “slope of fEPSP (hippocampal LTP)” value [3] of the same molecule?
Answer: increased

Question: What about the “degradation by gastrointestinal cells” value [4] of the same molecule?
Answer: not degraded

Question: What about the “uptake by gastrointestinal cells” value [4] of the same molecule?
Answer: taken up
